Earlier results as cited in paper PMC7904743, “WIDOCK: a reactive docking protocol for virtual screening of covalent inhibitors” (Journal of Computer-Aided Molecular Design, 2021).
Read-outs that look alike come from different tables or passages of the source.

Assays:
[1] = test system: OTUB2; settings: experimental actives if % labeling higher than 50%, cited from earlier work
[2] = test system: NUDT7; settings: protein labeling at 200 μM; experimental actives if % labeling higher than 50%; cited from earlier work
[3] = thiol reactivity, cited from earlier work
[4] = natural log of average rate constant k
[5] = natural logarithm of average rate constant
[6] = natural log of average kinetic rate constant
[7] = natural log of average rate constant

| Compound | OTUB2 % labeling [1] [%] | NUDT7 % labeling [2] [%] | ln(avg k) [3, 4] | ln(avg k) [3, 5] | OTUB2 % labeling ([1]; OTUB2 protein labeling) [%] | ln(avg k) [3, 6] | ln(avg k) [3, 7] |
| --- | --- | --- | --- | --- | --- | --- | --- |
| O=C(CCl)N1CCN(S(=O)(=O)c2ccc(F)cc2)CC1 [PCM-0102237, O=C(CCl)N1CCN(S(=O)(=O)c2ccc(F)cc2)CC1] | 0 | 6 | -16.014 | -16.014 | – | – | – |
| O=C(CCl)NC(=O)NCc1ccco1 [PCM-0102494, O=C(CCl)NC(=O)NCc1ccco1] | 0 | 0 | -16.128 | -16.128 | – | – | – |
| CC(C)C(C#N)N1CCN(C(=O)CCl)CC1 (stereo not drawn) [PCM-0102263, CC(C)C(C#N)N1CCN(C(=O)CCl)CC1] | 31 | 17 | -14.716 | -14.716 | – | – | – |
| O=C(CCl)NCc1cc(Br)cs1 [PCM-0103050, O=C(CCl)NCc1cc(Br)cs1] | – | 13 | – | – | 84 | -16.422 | -16.422 |
| N#Cc1c(NC(=O)CCl)sc2c1CCC2 [PCM-0102452, N#Cc1c(NC(=O)CCl)sc2c1CCC2] | 7 | 0 | -16.077 | -16.077 | – | – | – |
| O=C(CCl)Nc1ccc([N+](=O)[O-])cc1Cl [PCM-0102392, O=C(CCl)Nc1ccc([N+](=O)[O-])cc1Cl] | 21 | 16 | -15.878 | -15.878 | – | – | – |
| CC(C)N(C(=O)CCl)c1ccccc1 [PCM-0102272, CC(C)N(C(=O)CCl)c1ccccc1] | 0 | 22 | -15.780 | -15.780 | – | – | – |
| Cc1n[nH]c(C)c1NC(=O)CCl [PCM-0102588, Cc1n[nH]c(C)c1NC(=O)CCl] | 0 | 0 | -16.991 | -16.991 | – | – | – |
| CC(C)c1cccc(NC(=O)CCl)c1 [PCM-0102429, CC(C)c1cccc(NC(=O)CCl)c1] | 23 | 10 | -15.994 | -15.994 | – | – | – |
| CN(Cc1cc(Cl)cc(Cl)c1)C(=O)CCl [PCM-0102678, CN(Cc1cc(Cl)cc(Cl)c1)C(=O)CCl] | 0 | 45 | -15.789 | -15.789 | – | – | – |
| Cc1sc(NC(=O)CCl)c(C#N)c1C [PCM-0102202, Cc1sc(NC(=O)CCl)c(C#N)c1C] | 0 | 0 | -15.804 | -15.804 | – | – | – |
| CC1CCC(C#N)(N(C)C(=O)CCl)CC1 (stereo not drawn) [PCM-0102251, CC1CCC(C#N)(N(C)C(=O)CCl)CC1] | 0 | 5 | -15.448 | -15.448 | – | – | – |
| CC(C)N(CC(F)(F)F)C(=O)CCl [PCM-0102516, CC(C)N(CC(F)(F)F)C(=O)CCl] | 0 | 0 | -17.383 | -17.383 | – | – | – |
| CC(NC(=O)CCl)c1cccc2ccccc12 (stereo not drawn) [PCM-0102275, CC(NC(=O)CCl)c1cccc2ccccc12] | 73 | 32 | -16.435 | -16.435 | – | – | – |
| Cc1cc(C)cc(NC(=O)CCl)c1 [PCM-0102394, Cc1cc(C)cc(NC(=O)CCl)c1] | 22 | 0 | -15.891 | -15.891 | – | – | – |
| COc1ccccc1N1CCN(C(=O)CCl)CC1 [PCM-0102173, COc1ccccc1N1CCN(C(=O)CCl)CC1] | 0 | 0 | -15.826 | -15.826 | – | – | – |
| CC(c1ccccc1)N1CCN(C(=O)CCl)CC1 (stereo not drawn) [PCM-0102710, CC(c1ccccc1)N1CCN(C(=O)CCl)CC1] | 12 | 0 | – | -15.723 | – | – | -15.723 |
| O=C(CCl)N1CCN(S(=O)(=O)c2ccc3c(c2)CCC3)CC1 [PCM-0102193, O=C(CCl)N1CCN(S(=O)(=O)c2ccc3c(c2)CCC3)CC1] | 0 | 0 | -15.169 | -15.169 | – | – | – |
| O=C(CCl)N1CCN(c2ncc(C(F)(F)F)cc2Cl)CC1 [PCM-0102378, O=C(CCl)N1CCN(c2ncc(C(F)(F)F)cc2Cl)CC1] | 5 | 14 | -15.476 | -15.476 | – | – | – |
| Cc1ccc(C)c(S(=O)(=O)N2CCN(C(=O)CCl)CC2)c1 [PCM-0102353, Cc1ccc(C)c(S(=O)(=O)N2CCN(C(=O)CCl)CC2)c1] | 6 | 19 | -15.325 | -15.325 | – | – | – |
| O=C(CCl)N1CCN(c2ccc([N+](=O)[O-])cc2)CC1 [PCM-0102094, O=C(CCl)N1CCN(c2ccc([N+](=O)[O-])cc2)CC1] | 0 | 27 | -15.009 | -15.009 | – | – | – |

| Compound | OTUB2 % labeling [1] [%] | NUDT7 % labeling [2] [%] | ln(avg k) [3, 4] | ln(avg k) [3, 5] | OTUB2 % labeling ([1]; OTUB2 protein labeling) [%] | ln(avg k) [3, 6] | ln(avg k) [3, 7] |
| --- | --- | --- | --- | --- | --- | --- | --- |
| Cc1ccc(C(=O)O)cc1NC(=O)CCl [PCM-0102624, Cc1ccc(C(=O)O)cc1NC(=O)CCl] | 0 | 0 | -17.065 | -17.065 | – | – | – |
| COc1cc(Cl)c(C)cc1NC(=O)CCl [PCM-0102210, COc1cc(Cl)c(C)cc1NC(=O)CCl] | 25 | 0 | -15.971 | -15.971 | – | – | – |
| NC(=O)c1ccsc1NC(=O)CCl [PCM-0102314, NC(=O)c1ccsc1NC(=O)CCl] | 0 | 18 | -15.717 | -15.717 | – | – | – |
| O=C(CCl)N1CCN(Cc2ccco2)CC1 [PCM-0103006, O=C(CCl)N1CCN(Cc2ccco2)CC1] | – | 0 | – | – | 0 | -15.615 | -15.615 |
| N#Cc1cccc(C(=O)NNC(=O)CCl)c1 [PCM-0102857, N#Cc1cccc(C(=O)NNC(=O)CCl)c1] | – | 0 | – | – | 41 | -16.900 | -16.900 |
| CN(C(=O)CCl)C1=CCCC1 [PCM-0102869, CN(C(=O)CCl)C1=CCCC1] | – | 0 | – | – | 0 | -17.213 | -17.213 |
| CN(Cc1ccc(Cl)cc1)C(=O)CCl [PCM-0102344, CN(Cc1ccc(Cl)cc1)C(=O)CCl] | 0 | 34 | -15.486 | -15.486 | – | – | – |
| O=C(CCl)Nc1ccc2c(c1)CCC2 [PCM-0102662, O=C(CCl)Nc1ccc2c(c1)CCC2] | 14 | 12 | -16.202 | -16.202 | – | – | – |
| O=C(CCl)N(C1CC1)C1CCS(=O)(=O)C1 (stereo not drawn) [PCM-0102832, O=C(CCl)N(C1CC1)C1CCS(=O)(=O)C1] | – | 0 | – | – | 43 | -16.200 | -16.200 |
| COC(=O)c1cc(NC(=O)CCl)cn1C [PCM-0102545, COC(=O)c1cc(NC(=O)CCl)cn1C] | 33 | 0 | -15.579 | -15.579 | – | – | – |
| COc1ccc(N2CCN(C(=O)CCl)CC2)cc1 [PCM-0102254, COc1ccc(N2CCN(C(=O)CCl)CC2)cc1] | 0 | 0 | -15.625 | -15.625 | – | – | – |
| Cc1ccc2nc(NC(=O)CCl)sc2c1 [PCM-0103031, Cc1ccc2nc(NC(=O)CCl)sc2c1] | – | 88 | – | – | 18 | -15.473 | -15.473 |
| CN(Cc1ccccc1Br)C(=O)CCl [PCM-0102592, CN(Cc1ccccc1Br)C(=O)CCl] | 12 | 14 | -16.295 | -16.295 | – | – | – |
| O=C(CCl)Nc1cc2[nH]c(=O)[nH]c2cc1Br [PCM-0102388, O=C(CCl)Nc1cc2[nH]c(=O)[nH]c2cc1Br] | 56 | 0 | -15.369 | -15.369 | – | – | – |
| CN(CC1CC1)C(=O)CCl [PCM-0102714, CN(CC1CC1)C(=O)CCl] | 0 | 0 | – | -16.302 | – | – | -16.302 |
| Cc1c(C#N)c(NC(=O)CCl)n(C2CCCC2)c1C [PCM-0102183, Cc1c(C#N)c(NC(=O)CCl)n(C2CCCC2)c1C] | 0 | 28 | -15.991 | -15.991 | – | – | – |
| Cc1ccc(S(N)(=O)=O)cc1NC(=O)CCl [PCM-0102744, Cc1ccc(S(N)(=O)=O)cc1NC(=O)CCl] | – | 0 | – | – | 10 | -16.170 | -16.170 |
| CS(=O)(=O)c1ccccc1NC(=O)CCl [PCM-0102141, CS(=O)(=O)c1ccccc1NC(=O)CCl] | 0 | 0 | -16.264 | -16.264 | – | – | – |
| O=C(CCl)Nc1cccc(-c2nnc3n2CCCCC3)c1 [PCM-0102181, O=C(CCl)Nc1cccc(-c2nnc3n2CCCCC3)c1] | 0 | 0 | -15.929 | -15.929 | – | – | – |
| Cc1ccccc1C(C)NC(=O)CCl (stereo not drawn) [PCM-0102390, Cc1ccccc1C(C)NC(=O)CCl] | 26 | 10 | -16.582 | -16.582 | – | – | – |
| O=C(CCl)Nc1ccon1 [PCM-0103077, O=C(CCl)Nc1ccon1] | – | 0 | – | – | 30 | -16.220 | -16.220 |
